# Laboratory results: patent US4758580A, “Inhibiting growth of tumors with certain substituted phenoxy dimethyl alkanoic acids, esters or salts” (Yamanouchi Pharmaceutical Co., Ltd., priority 1985, dated 1988)
# Key:
# L-1210 = assay: In vitro cytotoxicity against mouse tumor cells, L-1210; type: cell-based; conditions: L1210, 72 h, L-1210, 3 days, 37° C., trypan blue, read-out: IC50
# Description: (§1) A suspension of cells in a culture medium was transferred into wells in a microplate in an amount of 1×10^5 cells/wall. Test sample diluted with a culture medium was added to the suspension in each well, and the mixture was incubated on the medium at 37° C. for 3 days in atmosphere of air containing 5% carbon dioxide. Thereafter, the incubated cells were recovered from the microplate and the number of live cells was counted by the dye exclusion test using a 0.5% solution of trypan blue and by using a hemocytomer.
# MH 134 (liver cancer) = assay: In vitro cytotoxicity against mouse tumor cells, MH 134; type: cell-based; conditions: 72 h, MH 134, 3 days, 37° C., trypan blue, read-out: IC50
# Description: as §1
# Ehrlich (carcinoma) = assay: In vitro cytotoxicity against mouse tumor cells, Ehrlich; type: cell-based; conditions: 72 h, Ehrlich (carcinoma), 3 days, 37° C., trypan blue, read-out: IC50
# Description: as §1
# Meth A solid tumor = assay: Anti-tumor test against methyl cholanthrene-induced Meth A solid tumor; type: in vivo, Balb/C/SLC mice; conditions: 1-8 Days
# Description: (§2) Meth A tumor cells, 1.5×10^6, on Day 7 after intraperitoneal transplantation to Balb/C/SLC mice were subcutaneously transplanted to the left abdomen of Balb/C/SLC mice (5 week age, male) of 8 mice each being grouped in one (16 mice for the control group). The active component was orally administered in a definite dose 24 hours after the transplantation according to the schedule shown in Table 3. An effect of tumor growth inhibition was compared by measuring the long diameter and short diameter of the tumor on Days 15 and 21 after the transplantation, calculating the tumor size (mm^2) and determining a tumor growth inhibition rate of the active component-administered group to the control group.
# MM-46 solid tumor = assay: Test against mouse mammalian MM-46 solid tumor; type: in vivo, C3 H/He/SLC mice; conditions: 1-9 Days
# Description: as §2, with “MM-46 Tumor” for “Meth A tumor”, “1×10^6,” for “1.5×10^6,”, “C3 H/He/SLC” for “Balb/C/SLC”, “(21” for “(16”, “2.” for “3.”, “14” for “15”
# MM 46 (mammary cancer) = assay: In vitro cytotoxicity against mouse tumor cells, MM 46; type: cell-based; conditions: 72 h, 3 days, 37° C., trypan blue
# Description: as §1
# ACHN (kidney cancer) = assay: In vitro cytotoxicity against human tumor cells, ACHN; type: cell-based; conditions: 72 h, 3 days, 37° C., crystalviolet, read-out: IC50
# Description: (§3) A suspension of cells in a culture medium was transferred into wells in a microplate in an amount of 5×10^4 cells/well. Test sample diluted with a culture medium was added to the suspension in each well, and the mixture was incubated at 37° C. for 3 days in an atmosphere of air containing 5% carbon dioxide. After skimming, sticking cells were dyed which crystalviolet for 10 minutes. After washing with water, 1% sodium lauryl sulfate solution was added to each well, and the absrobancy (optical density) at […] was measured. "% inhibition" was calculated from the following equation. [formula]
# [1] = system: Meth A (methylcholanthrene-induced cancer); assay: In vitro cytotoxicity against mouse tumor cells, Meth A; type: cell-based; conditions: 72 h, Meth A, 3 days, 37° C., trypan blue, read-out: IC50
# Description: as §1
# Bowes (melanoma) = assay: In vitro cytotoxicity against human tumor cells, Bowes; type: cell-based; conditions: 72 h, Bowes, 3 days, 37° C., crystalviolet, read-out: IC50
# Description: as §3
# MM-46 ascites tumor = assay: Anti-tumor test against mice mammary cancer MM-46 ascites tumor; type: in vivo, C3 H/He/CRJ mice
# Description: MM-46 tumor cells, 1×10^6, on Day 7 after intraperitoneal transplantation to C3 H/He/CRJ mice (5 week age, male) of 10 mice each being grouped in one. The active component was intraperitoneally administered in a definite dose 24 hours after the transplantation according to the schedule shown in Table 5. An effect of tumor growth inhibition was evaluated by a percentage of the median survival time of the administered group versus that of the control group, according to the following equation.
# T: median survival day of the administered group
# C: median survival day of the control group
# Hela (uterine cancer) = assay: In vitro cytotoxicity against human tumor cells, Hela; type: cell-based; conditions: 72 h, 3 days, 37° C., crystalviolet
# Description: as §3
# [2] = Toxicity test (acute, oral); conditions: mouse, in vivo, ddY mice, male
# Description: The active component was orally administered to ddY mice (mean body weight of 35 g, male). No example of death was noted up to the dose of 5,000 mg/kg. Accordingly, the acute toxicity of Compound B is greater than 5,000 mg/kg. (Effects)
# [3] = system: KB (nasal cavity & pharynx cancer); assay: In vitro cytotoxicity against human tumor cells, KB; type: cell-based; conditions: 72 h, KB, 3 days, 37° C., crystalviolet, read-out: IC50
# Description: as §3
# [4] = 6.25 mg/kg i.p., 1, 2, 3, 4 and 6 Days
# [5] = 12.5 mg/kg i.p., 1, 2, 3, 4 and 6 Days
# [6] = 25 mg/kg i.p., 1, 2, 3, 4 and 6 Days
# [7] = 50 mg/kg i.p., 1, 2, 3, 4 and 6 Days
# [8] = 100 mg/kg i.p., 1, 2, 3, 4 and 6 Days
# [9] = 200 mg/kg i.p., 1, 2, 3, 4 and 6 Days
smiles,measurement,setting,value
CCOC(=O)C(C)(C)CCCCOc1ccc(OCCCCCn2ccnc2)cc1 [Compound B],IC50,L-1210,1.9 µg/mL
same,IC50,MH 134 (liver cancer),2.2 µg/mL
same,IC50,Ehrlich (carcinoma),0.5 µg/mL
same,Growth Inhibition Rate,"Meth A solid tumor; Day 15, 100 mg/kg p.o.",27.5%
same,Size of Tumor,"Meth A solid tumor; Day 15, 100 mg/kg p.o.",163.0 ± 41.9 mm^2
same,Growth Inhibition Rate,"Meth A solid tumor; Day 15, 200 mg/kg p.o.",46.4%
same,Size of Tumor,"Meth A solid tumor; Day 15, 200 mg/kg p.o.",124.5 ± 60.2 mm^2
same,Growth Inhibition Rate,"Meth A solid tumor; Day 15, 400 mg/kg p.o.",53.6%
same,Size of Tumor,"Meth A solid tumor; Day 15, 400 mg/kg p.o.",104.4 ± 56.9 mm^2
same,Growth Inhibition Rate,"Meth A solid tumor; Day 21, 100 mg/kg p.o.",18.8%
same,Size of Tumor,"Meth A solid tumor; Day 21, 100 mg/kg p.o.",387.9 ± 101.8 mm^2
same,Growth Inhibition Rate,"Meth A solid tumor; Day 21, 200 mg/kg p.o.",39.2%
same,Size of Tumor,"Meth A solid tumor; Day 21, 200 mg/kg p.o.",290.8 ± 100.9 mm^2
same,Growth Inhibition Rate,"Meth A solid tumor; Day 21, 400 mg/kg p.o.",41.6%
same,Size of Tumor,"Meth A solid tumor; Day 21, 400 mg/kg p.o.",279.3 ± 152.1 mm^2
same,Growth Inhibition Rate,"MM-46 solid tumor; Day 14, 100 mg/kg p.o.",40.4%
same,Size of Tumor,"MM-46 solid tumor; Day 14, 100 mg/kg p.o.",150.1 ± 52.1 mm^2
same,Growth Inhibition Rate,"MM-46 solid tumor; Day 14, 200 mg/kg p.o.",41.3%
same,Size of Tumor,"MM-46 solid tumor; Day 14, 200 mg/kg p.o.",147.9 ± 56.2 mm^2
same,Growth Inhibition Rate,"MM-46 solid tumor; Day 14, 400 mg/kg p.o.",47.8%
same,Size of Tumor,"MM-46 solid tumor; Day 14, 400 mg/kg p.o.",131.5 ± 55.2 mm^2
same,Growth Inhibition Rate,"MM-46 solid tumor; Day 21, 100 mg/kg p.o.",55.8%
same,Size of Tumor,"MM-46 solid tumor; Day 21, 100 mg/kg p.o.",149.4 ± 84.8 mm^2
same,Growth Inhibition Rate,"MM-46 solid tumor; Day 21, 200 mg/kg p.o.",53.4%
same,Size of Tumor,"MM-46 solid tumor; Day 21, 200 mg/kg p.o.",147.5 ± 65.3 mm^2
same,Growth Inhibition Rate,"MM-46 solid tumor; Day 21, 400 mg/kg p.o.",53.4%
same,Size of Tumor,"MM-46 solid tumor; Day 21, 400 mg/kg p.o.",157.4 ± 104.0 mm^2
same,IC50,MM 46 (mammary cancer),0.7 µg/mL
same,IC50,ACHN (kidney cancer),2.3 µg/mL
same,IC50,[1],0.8 µg/mL
same,IC50,Bowes (melanoma),1 µg/mL
same,Median Survival Day,MM-46 ascites tumor; [4],7.0 days
same,Survivors (90 days),MM-46 ascites tumor; [4],0/10
same,T/C (median survival),MM-46 ascites tumor; [4],93.3%
same,Median Survival Day,MM-46 ascites tumor; [5],7.0 days
same,Survivors (90 days),MM-46 ascites tumor; [5],0/10
same,T/C (median survival),MM-46 ascites tumor; [5],93.3%
same,Median Survival Day,MM-46 ascites tumor; [6],8.5 days
same,Survivors (90 days),MM-46 ascites tumor; [6],0/10
same,T/C (median survival),MM-46 ascites tumor; [6],113.3%
same,Median Survival Day,MM-46 ascites tumor; [7],34.0 days
same,Survivors (90 days),MM-46 ascites tumor; [7],0/10
same,T/C (median survival),MM-46 ascites tumor; [7],453.3%
same,Median Survival Day,MM-46 ascites tumor; [8],49.0 days
same,Survivors (90 days),MM-46 ascites tumor; [8],1/10
same,T/C (median survival),MM-46 ascites tumor; [8],653.3%
same,Median Survival Day,MM-46 ascites tumor; [9],18.5 days
same,Survivors (90 days),MM-46 ascites tumor; [9],0/10
same,T/C (median survival),MM-46 ascites tumor; [9],246.7%
same,IC50,Hela (uterine cancer),2.05 µg/mL
same,LD50,[2],> 5000 mg/kg
same,IC50,[3],1.15 µg/mL
